Values of other authors in patent US8420630B2 (Boehringer Ingelheim Pharma GmbH & Co. KG, priority 2001, dated 2013).

System: cell culture
Settings: Ongkeko et al., 1995, J. Cell Sci., 108, 2897; cited from earlier work

## Cn1cnc2c(NCc3ccccc3)nc(NCCO)nc21 [olomoucine]
  effect with cytotoxic substances in cell culture: synergistic effect
